Non-standard residues stand in square brackets, D forms with d. No end group written: not given here. *: point of attachment. Biotin = O=C1N[C@H]2[C@H](CS[C@H]2CCCCC(=O)*)N1; pT = C[C@@H](OP(=O)(O)O)[C@H](N)C(=O)O; pS = N[C@@H](COP(=O)(O)O)C(=O)O
T1: GST-FBP21 (a protein having WW domain) (Homo sapiens, UniProt O75554)
T1 construct: GST
T1 sequence (O75554 1-376): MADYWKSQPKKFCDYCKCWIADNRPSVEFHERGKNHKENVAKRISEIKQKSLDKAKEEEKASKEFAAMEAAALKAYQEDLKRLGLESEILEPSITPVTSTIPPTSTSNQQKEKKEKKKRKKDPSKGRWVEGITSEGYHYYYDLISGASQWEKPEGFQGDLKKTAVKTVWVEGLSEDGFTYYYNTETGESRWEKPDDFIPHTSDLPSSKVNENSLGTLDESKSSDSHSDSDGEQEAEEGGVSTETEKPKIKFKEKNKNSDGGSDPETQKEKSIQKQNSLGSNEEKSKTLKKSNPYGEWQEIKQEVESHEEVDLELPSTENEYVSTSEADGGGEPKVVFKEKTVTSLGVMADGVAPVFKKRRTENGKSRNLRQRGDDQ

T2: GST-FBP21 (a protein having WW domain)
T2 sequence (O75554 whole entry, species assumed, looked up): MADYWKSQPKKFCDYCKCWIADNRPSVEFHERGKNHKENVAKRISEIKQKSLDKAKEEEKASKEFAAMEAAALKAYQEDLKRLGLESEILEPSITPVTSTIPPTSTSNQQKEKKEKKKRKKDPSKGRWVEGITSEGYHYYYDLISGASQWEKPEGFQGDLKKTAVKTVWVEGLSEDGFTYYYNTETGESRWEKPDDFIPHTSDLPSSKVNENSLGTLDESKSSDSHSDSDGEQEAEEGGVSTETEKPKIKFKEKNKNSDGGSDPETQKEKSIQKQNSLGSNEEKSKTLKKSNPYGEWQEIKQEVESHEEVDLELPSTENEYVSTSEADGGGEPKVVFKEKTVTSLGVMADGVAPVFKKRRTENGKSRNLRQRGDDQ


Columns and labels:
[1] = tested on: GST-CAP1 (a protein having PDZ domain); assay: Peptide capture on streptavidin-agarose beads in filter plate, tryptic digestion, MALDI MS detection of bound GST-CAP1; conditions: sample GST-CAP1; m/z as printed in cell above (1358.8 or 1152.6); signal size of about 1000 or more indicates significant binding
Protocol: (§1) To make the peptide array, the wells of a multiwell (i.e., 96-well filtration plate from Millipore having a pore size of 1.2 μm) filtration plate were first filled with a known volume of a suspension containing Streptavidin-linked agarose beads (Sigma). The biotinylated peptides were added (each in a separate well) and allowed to incubate with the avidin beads for a defined time interval following which vacuum (5-6 in. Hg) was applied to remove excess liquid. The immobilized peptides were then ready to be incubated with the protein mixture (e.g., a brain extract). After incubation, the peptide-protein complexes were washed in parallel, and subsequently subjected to enzymatic digestion (following in-gel digestion protocol). After digestion directly in the membrane plate, the digests were transferred to a MALDI plate for MS analysis, after concentration using a C18 resin-containing Millipore C18 ZIPTIP™ pipette tips.
(§2) In detail, 40 μL of streptavidin-agarose conjugate (Sigma S1638) was added to each well of a 96 well membrane filter plate washed with 200 μL of 1 mM TRIS HCl pH 7.5 (TRIS buffer) buffer using vacuum filtration. The beads were not allowed to dry out. The capture agents (e.g., biotinylated peptides, biotinylated antibodies, tagged proteins) were diluted with 1 mM TRIS HCl pH 7.5 buffer and 20 μL of each capture agent solution (at concentration of 1-2 mg/mL) was added to wells containing the avidin-agarose conjugate. The beads and capture agent were incubated for 1.5 to 2 hrs at room temperature using an orbital shaker (the plate was sealed during the incubation to avoid evaporation of the buffer). After incubation, excess solution was removed and the beads were washed with 200 μL of 1 mM TRIS HCl pH 7.5. A sample containing a protein of interest in TRIS buffer was added to the beads and the sample and beads were incubated overnight at room temperature using an orbital shaker (again using a sealed plate). The liquid was removed and the beads were washed using 200 μL of TRIS buffer. The capture agent-protein complexes, which are attached to the avidin-sepharose beads, were digested with 25 μL of trypsin in TRIS (concentration 20 μg/mL) at 45C for 45 min (again in a sealed plate). The 96 well plate containing the beads was placed in a manifold, and a vacuum was applied to collect each digest in a separate well of another 96-well plate. Using C18 ZIPTIP™ pipette tips (Millipore Corporation or equivalent) the digested peptides were extracted by prewashing the ZIPTIP™ with water/acetonitrile 1:1 then water containing 0.1% trifluoro-acetic acid, and then using the ZIPTIP™ pipette tips to capture the peptides from each well by moving each sample into and out of the tip at least 10 times, and wash the ZIPTIP™ pipette tip with water containing 0.1%TFA (trifluoroacetic acid). The peptides were eluted from the ZIPTIP™ pipette tip with MALDI matrix solution (e.g., 3-4 μL of HCCA at 0.5-1 mg/mL in actetonitrile/water or methanol/acetonitrile/water containing acetic acid) and spotted directly onto a MALDI sample plate.
(§3) The headers for each of the columns of Table 2 indicate, for each experiment, the peptide used as a capture agent. The first column of Table 2 indicates, for each experiment, the sample used. GST-CAP1, GST-FBP21, GST-14-3-3 are described above. “Brain extract” is a soluble protein extract of homogenized mouse brain, and, “QC” indicates the negative controls performed. M/z values indicate mass-to-charge ratios, and numbers in brackets indicate the size of the signal obtained, indicating the amount of the analytes present. In general, a signal size of about 1000 or more indicates significant binding.

GST-14-3-3 [2] = assay: Peptide capture on streptavidin-agarose beads in filter plate, tryptic digestion, MALDI MS detection of bound GST-14-3-3; type: binding; conditions: sample GST-14-3-3; for signal size (number in brackets) of MALDI MS signal: m/z1245.7, signal size of about 1000 or more indicates significant binding; for signal size (number in brackets) of second MALDI MS signal: m/z1255.9, for SmB the signal is […]
Protocol: as §1, §2, §3

[3] = tested on: mouse brain protein extract; assay: Peptide capture of proteins from brain extract, tryptic digestion, MALDI MS; type: binding; conditions: for signal size of MALDI MS signal: sample brain extract (soluble protein extract of homogenized mouse brain), about 1000 or more indicates significant binding
Protocol: as §1
as §2, with “Using C18 ZIPTIP™ pipette tips (Millipore Corporation or equivalent) the digested peptides were extracted by prewashing the ZIPTIP™ with water/acetonitrile 1:1 then water containing 0.1% trifluoro-acetic acid, and then using the ZIPTIP™ pipette tips to capture the peptides from each well by moving each sample into and out of the tip at least 10 times, and wash the ZIPTIP™ pipette tip with water containing 0.1%TFA (trifluoroacetic acid). The peptides were eluted from the ZIPTIP™ pipette tip with MALDI matrix solution (e.g., 3-4 μL of HCCA at 0.5-1 mg/mL in actetonitrile/water or methanol/acetonitrile/water containing acetic acid) and spotted directly onto a MALDI sample plate.” left out

p60Src = p60Src (Homo sapiens, UniProt P12931); assay: SmB immobilized on avidin beads incubated with Src, digestion, MALDI MS (QC); type: binding
From the text: The following were used as targets: GST-CAP1 (a protein having PDZ domain), GST-FBP21 (a protein having WW domain), GST-14-3-3, p60Src (a protooncogene tyrosine protein kinase known not to bind to any of the peptides listed above), and a mouse brain protein extract. Four of the 8 target peptides are proline-rich peptides, which are identified as SmB, CDC25, LD10 and WBP1, and are known to bind SH3 domains.
as §1, with “After digestion directly in the membrane plate, the digests were transferred to a MALDI plate for MS analysis, after concentration using a C18 resin-containing Millipore C18 ZIPTIP™ pipette tips.” left out
Significant binding was detected between several capture agents and several probes.

[4] = molecular target: T1, GST-FBP21 (a protein having WW domain); assay: Peptide capture on streptavidin-agarose beads in filter plate, tryptic digestion, MALDI MS detection of bound GST-FBP21; conditions: sample GST-FBP21; m/z 1138.7 or 1152.8; signal size of about 1000 or more indicates significant binding
Protocol: as §1, §2
The headers for each of the columns of Table 2 indicate, for each experiment, the peptide used as a capture agent. The first column of Table 2 indicates, for each experiment, the sample used. GST-CAP1, GST-FBP21, GST-14-3-3 are described above. “Brain extract” is a soluble protein extract of homogenized mouse brain, and, “QC” indicates the negative controls performed. […]

[5] = molecular target: T2, GST-FBP21 (a protein having WW domain); assay: biotinylated peptide on streptavidin-agarose beads, pull-down, trypsin digest, MALDI-MS, ion m/z1152.8
GST-14-3-3 [6] = assay: biotinylated peptide on streptavidin-agarose beads, pull-down, trypsin digest, MALDI-MS, ion m/z1245.7
[7] = molecular target: T2, GST-FBP21 (a protein having WW domain); assay: biotinylated peptide on streptavidin-agarose beads, pull-down, trypsin digest, MALDI-MS, ion m/z1138.7
[8] = molecular target: GST-CAP1 (a protein having PDZ domain); assay: biotinylated peptide on streptavidin-agarose beads, pull-down, trypsin digest, MALDI-MS, ion m/z1358.8

| Molecule | signal size (number in brackets) of MALDI MS signal [1] | signal size (number in brackets) of MALDI MS signal (GST-14-3-3 [2]) | signal size (number in brackets) of MALDI MS signal [4] | signal size (GST-14-3-3 [6]) | signal size [7] | also measured |
| --- | --- | --- | --- | --- | --- | --- |
| Biotin-PPGMRPPPPGMRRGPPPPGMRPPRP [SmB] | 0 | (0) |  |  |  | signal size (number in brackets) of second MALDI MS signal (GST-14-3-3 [2]): (3,000) is; binding of WD11 repeat protein (WDR11) from brain extract ([3]; brain extract, spectra matched to known WD11 repeat protein (Table 3)): binds only the SmB peptide; binding of p60Src (p60Src): did not significantly bind |
| Biotin-SGSGEQPLT*PVTDL [CDC25] | (480) | (0) | (500) |  |  | signal size (number in brackets) of second MALDI MS signal (GST-14-3-3 [2]): (800) |
| Biotin-SGSGGAPPTPPPLPP [LD10] | (1,600) | (150) | (15,000) |  |  |  |
| Biotin-SGSGGTPPPPYTVG [WBP1] | 0 | 0 | (9,000) |  |  | signal size of MALDI MS signal [3]: <100 |
| Biotin-SGSGVLIKRRST*EL-COOH [COXG] | 0 | (500) | (30,000) |  |  | signal size of MALDI MS signal [3]: <100 |
| Biotin-SGSGVLIKRRSTEL-OH [COXD] | (1,100) | (3600) | (200) |  |  | signal size of MALDI MS signal [3]: <50 |
| Biotin-SGSGPRPLRRE[pS]EI-OH (SMILES CC[C@H](C)[C@H](NC(=O)[C@H](CCC(=O)O)NC(=O)[C@H](COP(=O)(O)O)NC(=O)[C@H](CCC(=O)O)NC(=O)[C@H](CCCNC(=N)N)NC(=O)[C@H](CCCNC(=N)N)NC(=O)[C@H](CC(C)C)NC(=O)[C@@H]1CCCN1C(=O)[C@H](CCCNC(=N)N)NC(=O)[C@@H]1CCCN1C(=O)CNC(=O)[C@H](CO)NC(=O)CNC(=O)[C@H](CO)NC(=O)CCCC[C@@H]1SC[C@@H]2NC(=O)N[C@@H]21)C(=O)O) [Kir2.1* biotinylated phosphopeptide (Biotin-…*EI-COOH)] |  |  |  | 8000 |  | signal size [5]: 8000 |
| Biotin-SGSGGTPPPPYTVG [WBP1 biotinylated peptide (Biotin-…)] |  |  |  |  | 9000 |  |
| Biotin-SGSGEQPL[pT]PVTDL [CDC25 biotinylated phosphopeptide (Biotin-…*PVTDL)] |  |  |  |  | 500 | signal size [8]: 480 |
| Biotin-SGSGPRPLRRESEI-OH (SMILES CC[C@H](C)[C@H](NC(=O)[C@H](CCC(=O)O)NC(=O)[C@H](CO)NC(=O)[C@H](CCC(=O)O)NC(=O)[C@H](CCCNC(=N)N)NC(=O)[C@H](CCCNC(=N)N)NC(=O)[C@H](CC(C)C)NC(=O)[C@@H]1CCCN1C(=O)[C@H](CCCNC(=N)N)NC(=O)[C@@H]1CCCN1C(=O)CNC(=O)[C@H](CO)NC(=O)CNC(=O)[C@H](CO)NC(=O)CCCC[C@@H]1SC[C@@H]2NC(=O)N[C@@H]21)C(=O)O) [Kir2.1 biotinylated peptide (Biotin-…-COOH)] |  |  |  | 400 |  | signal size [8]: 250; signal size [5]: 900 |
| Biotin-SGSGVLIKRRSTEL-OH (SMILES CC[C@H](C)[C@H](NC(=O)[C@H](CC(C)C)NC(=O)[C@@H](NC(=O)CNC(=O)[C@H](CO)NC(=O)CNC(=O)[C@H](CO)NC(=O)CCCC[C@@H]1SC[C@@H]2NC(=O)N[C@@H]21)C(C)C)C(=O)N[C@@H](CCCCN)C(=O)N[C@@H](CCCNC(=N)N)C(=O)N[C@@H](CCCNC(=N)N)C(=O)N[C@@H](CO)C(=O)N[C@H](C(=O)N[C@@H](CCC(=O)O)C(=O)N[C@@H](CC(C)C)C(=O)O)[C@@H](C)O) [COXD biotinylated peptide (Biotin-…-COOH)] |  |  |  | 3600 | 200 | signal size [8]: 1100 |
| Biotin-SGSGVLIKRRS[pT]EL-OH (SMILES CC[C@H](C)[C@H](NC(=O)[C@H](CC(C)C)NC(=O)[C@@H](NC(=O)CNC(=O)[C@H](CO)NC(=O)CNC(=O)[C@H](CO)NC(=O)CCCC[C@@H]1SC[C@@H]2NC(=O)N[C@@H]21)C(C)C)C(=O)N[C@@H](CCCCN)C(=O)N[C@@H](CCCNC(=N)N)C(=O)N[C@@H](CCCNC(=N)N)C(=O)N[C@@H](CO)C(=O)N[C@H](C(=O)N[C@@H](CCC(=O)O)C(=O)N[C@@H](CC(C)C)C(=O)O)[C@@H](C)OP(=O)(O)O) [COXG biotinylated phosphopeptide (Biotin-…*EL-COOH)] |  |  |  | 500 | 30000 |  |

Reference: patent US20050178959A1, “Methods and compositions for assessing a sample by maldi mass spectrometry” (priority 2004, published 2005)
